From patent US20050130989A1, “N-arylheteroaromatic products compositions containing them and use thereof” (Aventis Pharma S. A., priority 2003, published 2005)

Legend:
tubulin = molecular target: T1, tubulin (Sus scrofa, UniProt P02550+P02554); assay: Evaluation of the inhibition of tubulin polymerization (turbidimetry); assay type: biochemical, pig; settings: tubulin 10 μm (1 mg/ml), 37° C., turbidity at 350 nm; concentration that inhibits the rate of polymerization by 50%; read-out: Inhibition of tubulin polymerization IC 50 (μm)
T1 construct: Tubulin is purified from pig brain according to published methods; from tissue; host or cells: pig brain
T1 sequence (P02550 whole entry): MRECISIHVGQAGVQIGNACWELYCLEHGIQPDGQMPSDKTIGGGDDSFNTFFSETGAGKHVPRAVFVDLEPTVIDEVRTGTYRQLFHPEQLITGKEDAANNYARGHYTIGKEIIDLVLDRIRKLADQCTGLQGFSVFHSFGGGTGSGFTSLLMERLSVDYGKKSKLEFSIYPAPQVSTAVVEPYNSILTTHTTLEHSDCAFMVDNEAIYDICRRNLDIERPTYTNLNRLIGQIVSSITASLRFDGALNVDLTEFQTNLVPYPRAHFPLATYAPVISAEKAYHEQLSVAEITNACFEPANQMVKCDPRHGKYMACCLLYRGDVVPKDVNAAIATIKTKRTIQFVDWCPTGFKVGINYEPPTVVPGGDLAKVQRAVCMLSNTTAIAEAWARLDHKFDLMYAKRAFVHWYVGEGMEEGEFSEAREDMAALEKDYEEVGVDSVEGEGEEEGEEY
T1 sequence (P02554 whole entry): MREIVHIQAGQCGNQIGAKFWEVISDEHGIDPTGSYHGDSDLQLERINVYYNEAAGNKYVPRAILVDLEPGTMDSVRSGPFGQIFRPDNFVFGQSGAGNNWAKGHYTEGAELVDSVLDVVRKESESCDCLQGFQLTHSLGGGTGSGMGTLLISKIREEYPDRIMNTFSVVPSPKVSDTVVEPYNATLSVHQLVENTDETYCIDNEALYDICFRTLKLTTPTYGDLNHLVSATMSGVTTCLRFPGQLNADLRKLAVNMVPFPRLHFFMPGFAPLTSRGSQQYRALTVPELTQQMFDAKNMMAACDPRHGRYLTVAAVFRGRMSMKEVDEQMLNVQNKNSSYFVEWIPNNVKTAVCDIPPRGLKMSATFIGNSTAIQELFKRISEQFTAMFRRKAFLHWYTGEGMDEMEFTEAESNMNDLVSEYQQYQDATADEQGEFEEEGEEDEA
Outline: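 Pig brain tubulin (>95% pure), 10 μm in MES pH 6.8/30% glycerol buffer plus 1 mM GTP and 6 mM MgCl2, with compound at 0.5–10 μm added before polymerization. Polymerization triggered by shift from 6° C to 37° C, followed by turbidity at 350 nm; IC50 is 50% inhibition of polymerization rate.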

HCT116 cells = assay: Inhibition of proliferation of the human colon tumor line HCT116 ([14C]-thymidine incorporation); assay type: cell-based; settings: Homo sapiens, HCT-116, 48 h, 48 hours at 37° C., read-out: Inhibition of HCT116 proliferation IC 50 (μm)
Protocol: The proliferation of HCT116 cells is evaluated by measuring the incorporation of [^14C]-thymidine in the following manner. The HCT 116 cells (obtained from the ATCC) are cultured in a DMEM medium (Gibco) containing 10% fetal calf serum and antibiotics (1% penicillin, 1% streptomycin). To perform the proliferation test, the cells are inoculated in cytostar 96-well microplates (Amersham), at a rate of 5000 cells per well. [^14C]-thymidine (0.1 μCi/well) and the products to be evaluated are then added. Variable concentrations of products up to 10 μm are used; the DMSO (solvent used to dissolve the products) should not exceed 0.5% in the medium. 48 hours after incubation at 37° C., the radioactivity incorporated into the cells is measured by counting the plate in a TRI-LUX counter (Wallac). The IC50 is defined as the concentration of product that reduces the radioactivity by 50% compared with an untreated control. A product whose IC50 is less than 3 μm is considered cytotoxic.

Row | SMILES | IC50 (tubulin) | IC50 (HCT116 cells)
1 | Cc1cc(C(=O)N2CCN(c3ccc(Cl)cc3)CC2)n(-c2cccc(Cl)c2)n1 [3/69] | 18000 nM | 347 nM
2 | COc1cc(OC)cc(N2CCN(C(=O)c3cc(/C=N\O)nn3-c3ccccc3)CC2)c1 [Example E95, 5-[4-(3,5-Dimethoxyphenyl)piperazine-1-carbonyl]-1-phenyl-1H-pyrazole-3-carboxaldehyde oxime Z] | 800 nM | 0.17 nM
3 | N#Cc1cccc(-n2nc(C(F)(F)F)cc2C(=O)N2CCN(c3cccc(Cl)c3)CC2)c1 [Example E55, 3-{5-[4-(3-Chlorophenyl)piperazine-1-carbonyl]-3-trifluoromethylpyrazol-1-yl}benzonitrile] | 3600 nM | 1340 nM
4 | C/C=C/c1cc(C(=O)N2CCN(c3cc(OC)cc(OC)c3)CC2)n(-c2ccccc2)n1 [Example E86] | 870 nM | 6.8 nM
5 | O=C(c1cc(CNc2ccccc2)nn1-c1ccccc1)N1CCN(c2cccc(Cl)c2)CC1 [Example E76, [4-(3-Chlorophenyl)piperazin-1-yl](2-phenyl-5-phenylaminomethyl-2H-pyrazol-3-yl)methanone] | 1900 nM | 138 nM
6 | Cc1cc(C(=O)N2CCN(c3cccc(Cl)c3Cl)CC2)n(-c2cccc(Cl)c2)n1 [3/125] | 12500 nM | 148 nM
7 | Cc1cc(C(=O)N2CCN(c3ccccc3C)CC2)n(-c2ccccc2F)n1 [3/87] | 15000 nM | 238 nM
8 | COc1cc(OC)cc(N2CCN(C(=O)c3cc(-c4ccc(C(F)(F)F)cc4)nn3-c3ccccc3)CC2)c1 [Example E89, [4-(3,5-Dimethoxyphenyl)piperazin-1-yl][2-phenyl-5-(4-trifluoromethylphenyl)-2H-pyrazol-3-yl]methanone] | 3420 nM | 1100 nM
9 | Cc1cccc(-n2nc(C)cc2C(=O)N2CCN(c3ccccc3C(F)(F)F)CC2)c1 [3/55] | 5500 nM | 1350 nM
10 | COc1cccc(-n2nc(C)cc2C(=O)N2CCN(c3cc(Cl)ccc3C)CC2)c1 [3/4] | 1800 nM | 389 nM
11 | COc1cc(OC)cc(N2CCN(C(=O)c3cc(NCc4ccccc4)nn3-c3ccccc3)CC2)c1 [Example E98, (5-Benzylamino-2-phenyl-2H-pyrazol-3-yl)[4-(3,5-dimethoxyphenyl)piperazin-1-yl]methanone] | 1400 nM | 223 nM
12 | COc1cc(OC)cc(N2CCN(C(=O)c3cc(-c4ccc(F)cc4)nn3-c3ccccc3)CC2)c1 [Example E88, [4-(3,5-Dimethoxyphenyl)piperazin-1-yl][5-(4-fluorophenyl)-2-phenyl-2H-pyrazol-3-yl]methanone] | 4530 nM | 1260 nM
13 | COc1cc(OC)cc(N2CCN(C(=O)c3cc(N4CCOCC4)nn3-c3ccccc3)CC2)c1 [Example E96, [4-(3,5-Dimethoxyphenyl)piperazin-1-yl][5-(morpholin-4-yl)-2-phenyl-2H-pyrazol-3-yl]methanone] | 11400 nM | 73.3 nM
14 | COc1cccc(-n2nc(C)cc2C(=O)N2CCN(c3cccc(C)c3C)CC2)c1 [3/135] | 6000 nM | 321 nM
15 | COc1ccc(Cl)cc1N1CCN(C(=O)c2cc(C)nn2-c2ccccc2F)CC1 [3/88] | 6000 nM | 60.5 nM
16 | Cc1cccc(-n2nc(C)cc2C(=O)N2CCN(c3ccc(C)c(C)c3)CC2)c1 [3/30] | 2900 nM | 729 nM
17 | COc1ccccc1N1CCN(C(=O)c2cc(C)nn2-c2ccc(F)cc2)CC1 [3/102] | 13000 nM | 181 nM
18 | Cc1cc(C(=O)N2CCN(c3cccc(Cl)c3)CC2)n(C2CCCCC2)n1 [Example E48, [4-(3-Chlorophenyl)piperazin-1-yl](2-cyclohexyl-5-methyl-2H-pyrazol-3-yl)-methanone] | 3260 nM | 490 nM
19 | COc1ccc(Cl)cc1N1CCN(C(=O)c2cc(C)nn2-c2cccc(C)c2)CC1 [3/54] | 1000 nM | 117 nM
20 | Cc1cc(C(=O)N2CCN(c3cccc(C(F)(F)F)c3)CC2)n(-c2cccc(F)c2)n1 [3/91] | 1500 nM | 14 nM

The remaining lines, values ahead:

Row | IC50 (tubulin) | IC50 (HCT116 cells) | SMILES
21 | 4500 nM | 217 nM | Cc1ccc(-n2nc(C)cc2C(=O)N2CCN(c3cccc(Cl)c3)CC2)cc1 [3/27]
22 | 3600 nM | 81.1 nM | Cc1cc(C(=O)N2CCN(c3cccc(C(N)=O)c3)CC2)n(-c2cccnc2)n1 [Example E97, 3-[4-(5-Methyl-2-pyrid-3-yl-2H-pyrazole-3-carbonyl)piperazin-1-yl]benzamide]
23 | 1400 nM | 11 nM | Cc1cc(C(=S)N2CCN(c3cccc(Cl)c3)CC2)n(-c2ccccc2)n1 [Example E7, [4-(3-Chlorophenyl)piperazin-1-yl](5-methyl-2-phenyl-2H-pyrazol-3-yl)-methanethione]
24 | 900 nM | 8.9 nM | Cc1cc(C(=O)N2CCN(c3cncc(Cl)c3)CC2)n(-c2ccccc2)n1 [Example E33, [4-(5-Chloro-3-pyridyl)piperazin-1-yl](5-methyl-2-phenyl-2H-pyrazol-3-yl)methanone]
25 | 1200 nM | 59.5 nM | CC(=O)Nc1cccc(N2CCN(C(=O)c3cc(C)nn3-c3ccccc3)CC2)c1 [Example E18, N-{3-[4-(5-methyl-2-phenyl-2H-pyrazole-3-carbonyl)piperazin-1-yl]phenyl}-acetamide]
26 | 2100 nM | 104 nM | Cc1cc(C(=O)N2CCN(c3ccc(Br)c(Cl)c3)CC2)n(-c2ccccc2)n1 [Example E59, [4-(4-Bromo-3-chlorophenyl)piperazin-1-yl](5-methyl-2-phenyl-2H-pyrazol-3-yl)methanone]
27 | 1100 nM | 5.5 nM | Cc1cccc(N2CCN(C(=O)c3cc(C)nn3-c3ccccc3)CC2)n1 [3/150]
28 | 3000 nM | 120 nM | Cc1cc(C(=O)N2CCN(c3cccc(NC(=O)CCO)c3)CC2)n(-c2ccccc2)n1 [Example E128, 3-Hydroxy-N-{3-[4-(5-methyl-2-phenyl-2H-pyrazole-3-carbonyl)piperazin-1-yl]-phenyl}propionamide]
29 | 1500 nM | 0.1 nM | Cc1cc(C(=O)N2CCN(c3cc(Cl)cc(Cl)c3)CC2)n(-c2ccccc2)n1 [Example E2, [4-(3,5-Dichlorophenyl)piperazin-1-yl](5-methyl-2-phenyl-2H-pyrazol-3-yl)methanone]
30 | 6000 nM | 338 nM | Cc1cc(C(=O)N2CCN(c3cccc(Cl)c3)CC2)n(-c2ccc(F)cc2)n1 [3/38]
31 | 9000 nM | 229 nM | CCOc1ccccc1N1CCN(C(=O)c2cc(C)nn2-c2ccccc2)CC1 [3/43]
32 | 1300 nM | 10.8 nM | O=Cc1cc(C(=O)N2CCN(c3cccc(Cl)c3)CC2)n(-c2ccccc2)n1 [Example E70, 5-[4-(3-Chlorophenyl)piperazine-1-carbonyl]-1-phenyl-1H-pyrazole-3-carboxaldehyde]
33 | 5000 nM | 569 nM | Cc1cc(C(=O)N2CCN(c3ccccc3)CC2)n(-c2ccc(F)cc2)n1 [3/101]
34 | 5000 nM | 118 nM | Cc1cccc(-n2nc(C)cc2C(=O)N2CCN(c3ccccc3C)CC2)c1 [3/48]
35 | 5000 nM | 452 nM | CCc1ccccc1N1CCN(C(=O)c2cc(C)nn2-c2cccc(C)c2)CC1 [3/29]
36 | 6500 nM | 841 nM | Cc1cc(C(=O)N2CCN(c3cccc(C(F)(F)F)c3)CC2)n(-c2ccccc2)n1 [3/8]
37 | 7000 nM | 494 nM | Cc1cc(C(=O)N2CCN(c3cccc(C)c3C)CC2)n(-c2ccccc2)n1 [3/9]
38 | 6400 nM | 135 nM | Cc1cc(C(=O)N2CCN(c3cccc(S(C)(=O)=O)c3)CC2)n(-c2ccccc2)n1 [Example E26, [4-(3-Methanesulfonylphenyl)piperazin-1-yl](5-methyl-2-phenyl-2H-pyrazol-3-yl)methanone]
39 | 800 nM | 6.3 nM | Cc1cc(C(=O)N2CCN(c3cccc(F)c3)CC2)n(-c2ccccc2)n1 [3/152]
40 | 1800 nM | 17 nM | Cc1cccc(N2CCN(C(=O)c3cc(C)nn3-c3cccc(F)c3)CC2)c1 [3/19]
41 | 3000 nM | 164 nM | CCc1ccccc1N1CCN(C(=O)c2cc(C)nn2-c2cccc(F)c2)CC1 [3/95]
42 | 13000 nM | 256 nM | Cc1cccc(-n2nc(C)cc2C(=O)N2CCN(c3ccc(Cl)cc3)CC2)c1 [3/52]
43 | 2000 nM | 47 nM | Cc1cccc(-n2nc(C)cc2C(=O)N2CCN(c3ccccc3)CC2)c1 [3/44]
44 | 1300 nM | 4.7 nM | Cc1cc(C(=O)N2CCN(c3cccc(Cl)n3)CC2)n(-c2ccccc2)n1 [Example E4, [4-(6-Chloropyrid-2-yl)piperazin-1-yl](5-methyl-2-phenyl-2H-pyrazol-3-yl)-methanone]
45 | 5000 nM | 239 nM | Cc1cc(C(=O)N2CCN(c3ccc(F)cc3)CC2)n(-c2cccc(Cl)c2)n1 [3/24]
